Test results from ChEMBL document CHEMBL4308890, “A carbapenem-based fluorescence assay for the screening of metallo-β-lactamase inhibitors” (Bioorg Med Chem Lett, 2019).

Columns and labels:
[1] = tested on: Aeromonas hydrophila subsp. hydrophila ATCC 7966; experiment: Inhibition of Aeromonas hydrophila ATCC 7966 CphA expressed in Escherichia coli LMG194 at 50 uM using CPC-1 as substrate preincubated for 10 mins followed by substrate addition by fluorescence assay relative to control
[2] = Inhibition of Aeromonas hydrophila ATCC 7966 beta-lactamase L1 expressed in Escherichia coli LMG194 using CPC-1 as substrate preincubated for 10 mins followed by substrate addition by fluorescence assay; parameters: species or system Aeromonas hydrophila subsp. hydrophila ATCC 7966
[3] = Inhibition of Aeromonas hydrophila ATCC 7966 NDM1 expressed in Escherichia coli LMG194 using CPC-1 as substrate preincubated for 10 mins followed by substrate addition by fluorescence assay; parameters: species or system Aeromonas hydrophila subsp. hydrophila ATCC 7966
[4] = Inhibition of Aeromonas hydrophila ATCC 7966 NDM1 expressed in Escherichia coli LMG194 using FC3 as substrate preincubated for 10 mins followed by substrate addition by fluorescence assay; parameters: species or system Aeromonas hydrophila subsp. hydrophila ATCC 7966
[5] = Inhibition of Aeromonas hydrophila ATCC 7966 IMP1 expressed in Escherichia coli LMG194 using CPC-1 as substrate preincubated for 10 mins followed by substrate addition by fluorescence assay; parameters: species or system Aeromonas hydrophila subsp. hydrophila ATCC 7966
[6] = Inhibition of Aeromonas hydrophila ATCC 7966 IMP1 expressed in Escherichia coli LMG194 using FC3 as substrate preincubated for 10 mins followed by substrate addition by fluorescence assay; parameters: species or system Aeromonas hydrophila subsp. hydrophila ATCC 7966
[7] = Inhibition of Aeromonas hydrophila ATCC 7966 beta-lactamase L1 expressed in Escherichia coli LMG194 using FC3 as substrate preincubated for 10 mins followed by substrate addition by fluorescence assay; parameters: species or system Aeromonas hydrophila subsp. hydrophila ATCC 7966
[8] = Inhibition of Aeromonas hydrophila ATCC 7966 CphA expressed in Escherichia coli LMG194 using CPC-1 as substrate preincubated for 10 mins followed by substrate addition by fluorescence assay; parameters: species or system Aeromonas hydrophila subsp. hydrophila ATCC 7966
[9] = Inhibition of Aeromonas hydrophila ATCC 7966 CphA expressed in Escherichia coli LMG194 using imipenem as substrate; parameters: species or system Aeromonas hydrophila subsp. hydrophila ATCC 7966

Compound	inhibition [1] [%]	IC50 [2] [µM]	IC50 [3] [µM]	IC50 [4] [µM]	IC50 [5] [µM]	IC50 [6] [µM]	IC50 [7] [nM]	IC50 [8] [µM]	IC50 [9] [µM]
O=c1c2ccccc2[se]n1-c1ccccc1	< 50								
OCC(S)CS (stereo not given) [DIMERCAPROL]	> 80	5	1.5	1	7.1	6.2	2600	7.8	
O=C(O)c1cccc(C(=O)O)n1 [DIPICOLINIC ACID]			8.8	6.2	23.6	29.4		61.5	88.4
